Source: ChEMBL document CHEMBL3045862, “PRE-CLINICAL AND CLINICAL PHARMACOKINETICS OF THE DIASTEREOMERS OF ARTEETHER, A POTENT ANTIMALARIAL” (Med Chem Res, 2004)

What was measured:
[1] = Volume of distribution in Rattus norvegicus Sprague-Dawley (rat) at 2 mg/kg, iv; assay type: ADME, organism-based; set-up: dose 2 mg/kg, route intravenous; conditions: in vivo
[2] = Elimination half life in Rattus norvegicus Sprague-Dawley (rat) at 9 mg/kg, administered intramuscularly; assay type: ADME, organism-based; set-up: dose 9 mg/kg, route intramuscular; conditions: in vivo, im, read-out: beta t1/2 (converted)
[3] = Tmax in Rattus norvegicus Sprague-Dawley (rat) at 17.5 mg/kg, administered intramuscularly; assay type: ADME, organism-based; set-up: dose 17.5 mg/kg, route intramuscular; conditions: in vivo, im
[4] = Mean residence time in Macaca mulatta (Rhesus monkey) at 4 mg/kg, iv; assay type: ADME, organism-based; set-up: dose 4 mg/kg, route intravenous; conditions: in vivo
[5] = Mean residence time in Rattus norvegicus Sprague-Dawley (rat) at 9 mg/kg, po; assay type: ADME, organism-based; set-up: dose 9 mg/kg, route oral; conditions: in vivo
[6] = Clearance in Rattus norvegicus Sprague-Dawley (rat) at 9 mg/kg, po; assay type: ADME, organism-based; set-up: dose 9 mg/kg, route oral; conditions: Sprague-Dawley, in vivo
[7] = Clearance in Macaca mulatta (Rhesus monkey) at 7.5 mg/kg, administered intramuscularly; assay type: ADME, organism-based; set-up: dose 7.5 mg/kg, route intramuscular; conditions: in vivo, im
[8] = Elimination half life in Macaca mulatta (Rhesus monkey) at 4 mg/kg, iv; assay type: ADME, organism-based; set-up: dose 4 mg/kg, route intravenous; conditions: in vivo, read-out: beta t1/2 (converted)
[9] = Cmax in Rattus norvegicus Sprague-Dawley (rat) at 9 mg/kg, administered intramuscularly; assay type: ADME, organism-based; set-up: dose 9 mg/kg, route intramuscular; conditions: in vivo, im
[10] = Cmax in Rattus norvegicus Sprague-Dawley (rat) at 17.5 mg/kg, administered intramuscularly; assay type: ADME, organism-based; set-up: dose 17.5 mg/kg, route intramuscular; conditions: in vivo, im
[11] = AUC (0 to infinity) in Rattus norvegicus Sprague-Dawley (rat) at 17.5 mg/kg, administered intramuscularly; assay type: ADME, organism-based, Plasma; set-up: dose 17.5 mg/kg, route intramuscular, time infinity; conditions: Sprague-Dawley, plasma, im
[12] = Tmax in Rattus norvegicus Sprague-Dawley (rat) at 30 mg/kg, po; assay type: ADME, organism-based; set-up: dose 30 mg/kg, route oral; conditions: in vivo
[13] = AUC (0 to infinity) in Rattus norvegicus Sprague-Dawley (rat) at 9 mg/kg, po; assay type: ADME, organism-based, Plasma; set-up: time infinity, dose 9 mg/kg, route oral; conditions: Sprague-Dawley, plasma
[14] = system: Rhesus monkey; assay: Dose normalized AUC in Macaca mulatta (Rhesus monkey) at 4 mg/kg, iv; assay type: ADME, organism-based; set-up: dose 4 mg/kg, route intravenous; conditions: in vivo
[15] = system: Rattus norvegicus; assay: Volume of distribution in Rattus norvegicus Sprague-Dawley (rat) at 17.5 mg/kg, po; assay type: ADME, organism-based; set-up: dose 17.5 mg/kg, route oral; conditions: in vivo
[16] = Mean residence time in Rattus norvegicus Sprague-Dawley (rat) at 30 mg/kg, po; assay type: ADME, organism-based; set-up: dose 30 mg/kg, route oral; conditions: in vivo
[17] = Clearance in Macaca mulatta (Rhesus monkey) at 4 mg/kg, iv; assay type: ADME, organism-based; set-up: dose 4 mg/kg, route intravenous; conditions: in vivo
[18] = system: Rattus norvegicus; assay: Dose normalized AUC in Rattus norvegicus Sprague-Dawley (rat) at 17.5 mg/kg, administered intramuscularly; assay type: ADME, organism-based; set-up: dose 17.5 mg/kg, route intramuscular; conditions: in vivo, im
[19] = Elimination half life in Rattus norvegicus Sprague-Dawley (rat) at 30 mg/kg, administered intramuscularly; assay type: ADME, organism-based; set-up: dose 30 mg/kg, route intramuscular; conditions: in vivo, im, read-out: beta t1/2 (converted)
[20] = AUC (0 to infinity) in Rattus norvegicus Sprague-Dawley (rat) at 17.5 mg/kg, po; assay type: ADME, organism-based, Plasma; set-up: time infinity, dose 17.5 mg/kg, route oral; conditions: Sprague-Dawley, plasma
[21] = Volume of distribution in Homo sapiens (human) at 150 mg; assay type: ADME, organism-based; conditions: in vivo
[22] = system: Rattus norvegicus; assay: Volume of distribution in Rattus norvegicus Sprague-Dawley (rat) at 30 mg/kg, po; assay type: ADME, organism-based; set-up: dose 30 mg/kg, route oral; conditions: in vivo
[23] = Cmax in Homo sapiens (human) at 150 mg; assay type: ADME, organism-based; set-up: dose 150 mg; conditions: in vivo
[24] = Elimination half life in Rattus norvegicus Sprague-Dawley (rat) at 17.5 mg/kg, po; assay type: ADME, organism-based; set-up: dose 17.5 mg/kg, route oral; conditions: in vivo, read-out: beta t1/2 (converted)
[25] = Volume of distribution in Macaca mulatta (Rhesus monkey) at 4 mg/kg, iv; assay type: ADME, organism-based; set-up: dose 4 mg/kg, route intravenous; conditions: in vivo
[26] = system: Rattus norvegicus; assay: Volume of distribution in Rattus norvegicus Sprague-Dawley (rat) at 9 mg/kg, administered intramuscularly; assay type: ADME, organism-based; set-up: dose 9 mg/kg, route intramuscular; conditions: in vivo, im
[27] = Mean residence time in Rattus norvegicus Sprague-Dawley (rat) at 30 mg/kg, administered intramuscularly; assay type: ADME, organism-based; set-up: dose 30 mg/kg, route intramuscular; conditions: in vivo, im
[28] = Cmax in Rattus norvegicus Sprague-Dawley (rat) at 17.5 mg/kg, po; assay type: ADME, organism-based; set-up: dose 17.5 mg/kg, route oral; conditions: in vivo
[29] = Tmax in Rattus norvegicus Sprague-Dawley (rat) at 9 mg/kg, po; assay type: ADME, organism-based; set-up: dose 9 mg/kg, route oral; conditions: in vivo
[30] = Tmax in Macaca mulatta (Rhesus monkey) at 50 mg/kg, po; assay type: ADME, organism-based; set-up: dose 50 mg/kg, route oral; conditions: in vivo
[31] = Clearance in Rattus norvegicus Sprague-Dawley (rat) at 17.5 mg/kg, administered intramuscularly; assay type: ADME, organism-based; set-up: dose 17.5 mg/kg, route intramuscular; conditions: Sprague-Dawley, in vivo, im
[32] = Elimination half life in Rattus norvegicus Sprague-Dawley (rat) at 2 mg/kg, iv; assay type: ADME, organism-based; set-up: dose 2 mg/kg, route intravenous; conditions: in vivo, read-out: beta t1/2 (converted)
[33] = system: Rattus norvegicus; assay: Dose normalized AUC in Rattus norvegicus Sprague-Dawley (rat) at 17.5 mg/kg, po; assay type: ADME, organism-based; set-up: dose 17.5 mg/kg, route oral; conditions: in vivo
[34] = Cmax in Rattus norvegicus Sprague-Dawley (rat) at 30 mg/kg, po; assay type: ADME, organism-based; set-up: dose 30 mg/kg, route oral; conditions: in vivo
[35] = system: Rattus norvegicus; assay: Volume of distribution in Rattus norvegicus Sprague-Dawley (rat) at 17.5 mg/kg, administered intramuscularly; assay type: ADME, organism-based; set-up: dose 17.5 mg/kg, route intramuscular; conditions: in vivo, im
[36] = system: Rattus norvegicus; assay: Volume of distribution in Rattus norvegicus Sprague-Dawley (rat) at 30 mg/kg, administered intramuscularly; assay type: ADME, organism-based; set-up: dose 30 mg/kg, route intramuscular; conditions: in vivo, im
[37] = Clearance in Rattus norvegicus Sprague-Dawley (rat) at 17.5 mg/kg, po; assay type: ADME, organism-based; set-up: dose 17.5 mg/kg, route oral; conditions: Sprague-Dawley, in vivo
[38] = Cmax in Rattus norvegicus Sprague-Dawley (rat) at 30 mg/kg, administered intramuscularly; assay type: ADME, organism-based; set-up: dose 30 mg/kg, route intramuscular; conditions: in vivo, im
[39] = Clearance in Rattus norvegicus Sprague-Dawley (rat) at 9 mg/kg, administered intramuscularly; assay type: ADME, organism-based; set-up: dose 9 mg/kg, route intramuscular; conditions: Sprague-Dawley, in vivo, im
[40] = AUC (0 to infinity) in Rattus norvegicus Sprague-Dawley (rat) at 9 mg/kg, administered intramuscularly; assay type: ADME, organism-based, Plasma; set-up: time infinity, dose 9 mg/kg, route intramuscular; conditions: Sprague-Dawley, plasma, im
[41] = system: Rattus norvegicus; assay: Dose normalized AUC in Rattus norvegicus Sprague-Dawley (rat) at 30 mg/kg, po; assay type: ADME, organism-based; set-up: dose 30 mg/kg, route oral; conditions: in vivo

With `CCO[C@H]1O[C@@H]2O[C@@]3(C)CC[C@H]4[C@H](C)CC[C@@H]([C@H]1C)[C@@]24OO3` [ARTEMOTIL] the Vd [1] was 9.3 L/kg, the half-life [2] was 28.5 h and the Tmax [3] was 0.5 h. For the same compound, the MRT [4] was 2.8 h, the MRT [5] was 6.7 h and the CL/F [6] was 2120 mL/min/kg. The CL/F [7] was 118 mL/min/kg, the half-life [8] was 2.6 h and the Cmax [9] was 39.8 ng/mL. For the same compound, the Cmax [10] was 136 ng/mL, the AUC(0-inf) [11] was 2410 ng·h/mL and the Tmax [12] was 5 min. It also gave an AUC(0-inf) [13] of 46.8 ng·h/mL, an AUC/dose [14] of 435.8 ng·h/mL and a Vd [15] of 1965.9 L/kg. It also gave an MRT [16] of 3.4 h, a clearance [17] of 38.3 mL/min/kg and an AUC/dose [18] of 197.1 ng·h/mL. It also gave a half-life [19] of 25.2 h, an AUC(0-inf) [20] of 33.9 ng·h/mL and a Vd [21] of 36.2 L/kg. It also gave a Vd [22] of 3024.2 L/kg, a Cmax [23] of 49.8 ng/mL and a half-life [24] of 4.5 h. For the same compound, the Vd [25] was 8.6 L/kg, the Vd [26] was 213.2 L/kg and the MRT [27] was 44.2 h. The Cmax [28] was 8.1 ng/mL, the Tmax [29] was 5 min and the Tmax [30] was 0.583 h. The CL/F [31] was 83.3 mL/min/kg, the half-life [32] was 0.85 h and the AUC/dose [33] was 2.8 ng·h/mL. It also gave a Cmax [34] of 8.1 ng/mL, a Vd [35] of 198.7 L/kg and a Vd [36] of 1660.6 L/kg. The CL/F [37] was 5060 mL/min/kg, the Cmax [38] was 27.8 ng/mL and the CL/F [39] was 86.7 mL/min/kg. It also gave an AUC(0-inf) [40] of 1180 ng·h/mL and an AUC/dose [41] of 1.2 ng·h/mL.
